Laboratory results taken from ChEMBL document CHEMBL1201862, “PubChem BioAssay data set” (2004).
Activity calls are given as the source filed them.

Legend:
Protein skinhead-1 = molecular target: T1, Protein skinhead-1 (Caenorhabditis elegans, UniProt P34707); type: functional
T1 sequence (P34707 whole entry): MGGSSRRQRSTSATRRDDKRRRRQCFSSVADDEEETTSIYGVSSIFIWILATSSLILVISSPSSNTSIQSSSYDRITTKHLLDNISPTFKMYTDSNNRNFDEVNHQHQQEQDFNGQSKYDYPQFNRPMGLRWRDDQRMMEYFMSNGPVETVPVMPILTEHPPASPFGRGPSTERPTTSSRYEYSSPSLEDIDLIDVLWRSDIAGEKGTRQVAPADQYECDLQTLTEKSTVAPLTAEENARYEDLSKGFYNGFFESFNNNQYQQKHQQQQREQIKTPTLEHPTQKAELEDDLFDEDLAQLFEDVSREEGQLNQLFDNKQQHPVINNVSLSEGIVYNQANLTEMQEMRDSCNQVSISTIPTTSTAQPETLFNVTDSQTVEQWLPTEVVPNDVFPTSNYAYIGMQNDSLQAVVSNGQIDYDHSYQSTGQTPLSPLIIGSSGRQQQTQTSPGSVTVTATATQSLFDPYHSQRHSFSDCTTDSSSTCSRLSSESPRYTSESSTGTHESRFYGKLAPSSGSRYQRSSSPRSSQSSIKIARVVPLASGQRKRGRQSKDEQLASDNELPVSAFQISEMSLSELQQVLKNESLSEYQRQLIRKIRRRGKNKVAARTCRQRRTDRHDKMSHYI

[1] = viability loss in HeLa cells – cytotoxicity control for MgcRacGAP inhibitor project, dose response (AID 624300); type: functional
[2] = molecular target: T2, Low molecular weight phosphotyrosine protein phosphatase (Homo sapiens, UniProt P24666); type: functional; conditions: read-out: IC50_Mean;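 also: Dose-response confirmation assay measuring inhibition of LMPTP enzyme activity by fluorescence intensity read-out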
T2 sequence (P24666 whole entry): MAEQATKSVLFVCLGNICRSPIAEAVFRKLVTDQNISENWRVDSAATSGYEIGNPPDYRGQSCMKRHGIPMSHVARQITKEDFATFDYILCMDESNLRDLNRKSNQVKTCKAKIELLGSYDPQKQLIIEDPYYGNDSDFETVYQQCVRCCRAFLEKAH

[3] = molecular target: T3, RNA-binding protein pos-1 (Caenorhabditis elegans, UniProt G5EF15); assay: disruptors of C. elegans POS-1 RNA interaction – biochemical, fluorescence polarization, dose response (AID 1964);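 also: purified POS-1 fused to maltose binding protein made in E. coli; potency of compounds blocking POS-1 binding to fluorescent RNA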
T3 sequence (G5EF15 whole entry): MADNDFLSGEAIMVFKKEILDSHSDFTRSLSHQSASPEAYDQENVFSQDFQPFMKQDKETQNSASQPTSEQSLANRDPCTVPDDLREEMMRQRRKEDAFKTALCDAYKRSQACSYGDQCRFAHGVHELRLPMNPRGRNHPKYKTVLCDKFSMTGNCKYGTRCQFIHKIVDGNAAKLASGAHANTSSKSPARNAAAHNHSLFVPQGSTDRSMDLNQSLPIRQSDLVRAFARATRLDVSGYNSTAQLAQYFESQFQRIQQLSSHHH

[4] = molecular target: T4, Rac GTPase-activating protein 1 (Homo sapiens, UniProt Q9H0H5); assay: blockers of MgcRacGAP-driven Rac1 GTP hydrolysis – biochemical, ADP Hunter fluorescence, primary and confirmatory, confirmation (AID 624330); type: functional
T4 sequence (Q9H0H5 whole entry): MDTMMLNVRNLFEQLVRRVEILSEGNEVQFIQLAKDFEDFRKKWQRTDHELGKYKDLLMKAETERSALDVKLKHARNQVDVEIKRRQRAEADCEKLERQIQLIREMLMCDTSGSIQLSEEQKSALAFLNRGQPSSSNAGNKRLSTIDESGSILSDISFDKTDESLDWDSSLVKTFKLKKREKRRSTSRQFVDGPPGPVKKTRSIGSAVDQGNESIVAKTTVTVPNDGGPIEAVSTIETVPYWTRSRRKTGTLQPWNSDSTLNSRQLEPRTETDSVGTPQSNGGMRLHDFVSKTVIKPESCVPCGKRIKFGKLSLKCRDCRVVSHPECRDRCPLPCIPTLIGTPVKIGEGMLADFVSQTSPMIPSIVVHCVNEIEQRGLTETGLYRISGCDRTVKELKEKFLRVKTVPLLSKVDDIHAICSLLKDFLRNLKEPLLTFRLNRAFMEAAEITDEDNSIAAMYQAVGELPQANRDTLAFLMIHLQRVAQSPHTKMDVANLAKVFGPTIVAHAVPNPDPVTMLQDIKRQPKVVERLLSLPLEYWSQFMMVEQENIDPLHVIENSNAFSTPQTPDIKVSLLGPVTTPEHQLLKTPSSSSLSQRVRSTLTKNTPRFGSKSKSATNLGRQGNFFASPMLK

[5] = molecular target: DNA (cytosine-5)-methyltransferase 1 (Homo sapiens, UniProt P26358); assay: inhibition of DNA methylation by DNMT1 – biochemical, fluorescent molecular beacon, confirmation (AID 602386); type: functional
[6] = molecular target: T5, Sentrin-specific protease 8 (Homo sapiens, UniProt Q96LD8); type: functional
T5 sequence (Q96LD8 whole entry): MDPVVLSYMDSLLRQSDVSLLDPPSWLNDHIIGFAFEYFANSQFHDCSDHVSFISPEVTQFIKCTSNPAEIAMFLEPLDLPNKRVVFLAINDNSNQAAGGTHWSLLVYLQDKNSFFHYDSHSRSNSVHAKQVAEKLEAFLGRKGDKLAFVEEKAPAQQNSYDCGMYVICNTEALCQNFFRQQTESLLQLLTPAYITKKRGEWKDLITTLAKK

[7] = molecular target: T5, Sentrin-specific protease 8; type: functional; remark: listed apart in the source
[8] = molecular target: T6, DNA repair protein RAD52 homolog (Homo sapiens, UniProt P43351); type: functional, biochemical
T6 sequence (P43351 whole entry): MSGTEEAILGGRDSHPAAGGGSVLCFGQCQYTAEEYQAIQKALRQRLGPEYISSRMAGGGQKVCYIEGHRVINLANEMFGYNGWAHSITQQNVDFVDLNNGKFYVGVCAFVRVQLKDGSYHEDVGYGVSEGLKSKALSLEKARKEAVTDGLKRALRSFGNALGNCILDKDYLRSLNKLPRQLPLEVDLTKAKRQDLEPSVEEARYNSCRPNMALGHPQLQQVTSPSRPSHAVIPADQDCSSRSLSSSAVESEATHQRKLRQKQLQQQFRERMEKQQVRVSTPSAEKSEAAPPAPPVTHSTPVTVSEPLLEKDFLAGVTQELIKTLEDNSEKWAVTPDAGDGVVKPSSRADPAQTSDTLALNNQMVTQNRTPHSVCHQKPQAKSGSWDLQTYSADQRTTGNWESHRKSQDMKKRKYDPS

[9] = molecular target: T7, Microphthalmia-associated transcription factor (Homo sapiens, UniProt O75030); assay: reducers of TRPM1 reporter luminescence, concentration series – cell-based, SK-MEL-5, cherry-picked, set 3, MITF inhibitor project, dose response (AID 493073); type: functional;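 also: SK-MEL-5 melanoma cells with luciferase driven by the MITF target TRPM1 promoter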
T7 sequence (O75030 whole entry): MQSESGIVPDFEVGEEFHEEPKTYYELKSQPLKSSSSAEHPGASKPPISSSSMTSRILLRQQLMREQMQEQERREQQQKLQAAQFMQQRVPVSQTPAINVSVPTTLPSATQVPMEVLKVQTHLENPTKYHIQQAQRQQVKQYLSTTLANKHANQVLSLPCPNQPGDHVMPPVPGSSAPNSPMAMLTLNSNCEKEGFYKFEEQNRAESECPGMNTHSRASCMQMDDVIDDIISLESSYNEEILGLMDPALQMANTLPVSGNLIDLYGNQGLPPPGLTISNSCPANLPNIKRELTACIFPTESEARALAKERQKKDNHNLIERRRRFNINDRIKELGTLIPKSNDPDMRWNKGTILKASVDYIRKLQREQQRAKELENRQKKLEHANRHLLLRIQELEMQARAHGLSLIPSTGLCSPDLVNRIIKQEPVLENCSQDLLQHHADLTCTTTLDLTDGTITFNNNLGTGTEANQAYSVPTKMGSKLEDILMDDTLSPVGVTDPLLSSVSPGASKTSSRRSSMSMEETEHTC

[10] = molecular target: T8, DNA repair and recombination protein RAD54-like (Homo sapiens, UniProt Q92698); assay: RAD54 Holliday junction migration blockers – biochemical, fluorescence, cherry-picked samples, dose series, confirmation (AID 651657); type: functional
T8 sequence (Q92698 whole entry): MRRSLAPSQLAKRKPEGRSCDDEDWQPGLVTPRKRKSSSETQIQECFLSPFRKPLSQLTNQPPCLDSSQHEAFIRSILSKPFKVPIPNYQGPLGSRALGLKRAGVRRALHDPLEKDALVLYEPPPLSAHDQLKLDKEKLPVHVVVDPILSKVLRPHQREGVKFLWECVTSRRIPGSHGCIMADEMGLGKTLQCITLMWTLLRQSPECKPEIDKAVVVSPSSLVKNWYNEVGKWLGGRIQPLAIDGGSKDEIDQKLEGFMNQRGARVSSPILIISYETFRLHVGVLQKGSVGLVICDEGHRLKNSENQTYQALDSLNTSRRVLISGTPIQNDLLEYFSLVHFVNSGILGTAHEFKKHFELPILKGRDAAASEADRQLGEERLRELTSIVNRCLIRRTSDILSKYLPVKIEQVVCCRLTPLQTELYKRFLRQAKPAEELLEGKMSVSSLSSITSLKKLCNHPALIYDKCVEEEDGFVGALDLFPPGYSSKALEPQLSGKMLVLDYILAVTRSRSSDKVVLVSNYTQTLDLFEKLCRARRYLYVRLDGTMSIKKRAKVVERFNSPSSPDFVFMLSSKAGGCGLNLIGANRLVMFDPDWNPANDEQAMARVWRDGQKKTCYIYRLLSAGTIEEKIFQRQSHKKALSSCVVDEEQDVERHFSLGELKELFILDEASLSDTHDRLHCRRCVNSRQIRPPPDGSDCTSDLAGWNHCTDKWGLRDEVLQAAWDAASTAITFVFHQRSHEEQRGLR

[11] = molecular target: T9, Hepatocyte nuclear factor 4-alpha (Homo sapiens, UniProt P41235); type: functional, cell-based;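 also: biochemical luminescence-based dose-response counterscreen measuring inhibition of HNF4 dimerization, run alongside a screen for blockers of ABHD5–perilipin-5 interaction; split luciferase complementation of HNF4 fusion proteins in cell lysate measuring dimerization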
T9 sequence (P41235 whole entry): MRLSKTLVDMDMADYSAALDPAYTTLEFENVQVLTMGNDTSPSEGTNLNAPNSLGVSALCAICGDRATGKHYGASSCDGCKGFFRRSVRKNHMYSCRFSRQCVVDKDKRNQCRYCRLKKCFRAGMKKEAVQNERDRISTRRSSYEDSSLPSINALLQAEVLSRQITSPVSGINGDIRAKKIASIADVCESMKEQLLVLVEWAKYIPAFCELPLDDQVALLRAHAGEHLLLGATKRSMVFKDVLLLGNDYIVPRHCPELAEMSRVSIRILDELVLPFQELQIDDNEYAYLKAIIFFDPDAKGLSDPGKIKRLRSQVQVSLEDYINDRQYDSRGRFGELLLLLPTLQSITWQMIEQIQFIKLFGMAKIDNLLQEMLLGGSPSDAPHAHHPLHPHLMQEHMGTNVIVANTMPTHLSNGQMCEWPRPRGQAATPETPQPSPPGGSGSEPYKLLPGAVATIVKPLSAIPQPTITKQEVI

[12] = activation of miR-122 Renilla sensor silencing – cell-based, Huh7 psiCHECK-miR122, Renilla luciferase, cherry-picked, dose response (AID 651956); type: functional;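 also: huh7 hepatoma cells stably carrying a psiCHECK-2 miR-122 sensor plasmid; renilla luciferase signal reporting endogenous miR-122 activity after 48 h compound exposure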
[13] = general mammalian cell viability loss – activator set, cherry-pick, cytotoxicity control for miR-122 modulator project, dose response (AID 720690); type: functional, cell-based;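 also: HEK293T human cells scored for general mammalian cytotoxicity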
Cytochrome P450 3A4 = Cytochrome P450 3A4 (Homo sapiens, UniProt P08684);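 also: CYP3A4 tested as one member of a cytochrome P450 panel screen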
[14] = HIV-1 Vif–A3G interaction blockers – biochemical, TR-FRET, GST-Vif 1-94, biotin-A3G peptide, dose response retest, primary screen (AID 1117319); type: functional;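 also: TR-FRET signal of purified GST-Vif binding a biotinylated A3G peptide; inhibitors lower the FRET signal by blocking Vif and A3G binding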

Cytochrome P450 3A4, sequence (P08684 whole entry): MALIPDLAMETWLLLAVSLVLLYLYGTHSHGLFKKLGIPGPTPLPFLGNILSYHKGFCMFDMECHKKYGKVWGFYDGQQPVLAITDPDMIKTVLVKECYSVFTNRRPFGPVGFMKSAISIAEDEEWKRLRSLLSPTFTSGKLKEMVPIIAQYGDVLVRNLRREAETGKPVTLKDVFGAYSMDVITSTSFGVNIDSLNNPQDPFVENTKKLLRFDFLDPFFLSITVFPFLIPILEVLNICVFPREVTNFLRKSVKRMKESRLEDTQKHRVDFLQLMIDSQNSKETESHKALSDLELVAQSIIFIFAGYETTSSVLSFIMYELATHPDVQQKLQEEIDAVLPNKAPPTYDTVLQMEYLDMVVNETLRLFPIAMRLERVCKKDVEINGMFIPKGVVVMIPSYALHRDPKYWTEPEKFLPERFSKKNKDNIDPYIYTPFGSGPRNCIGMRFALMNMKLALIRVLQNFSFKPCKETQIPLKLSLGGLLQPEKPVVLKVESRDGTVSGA
DNA (cytosine-5)-methyltransferase 1, sequence (P26358 whole entry): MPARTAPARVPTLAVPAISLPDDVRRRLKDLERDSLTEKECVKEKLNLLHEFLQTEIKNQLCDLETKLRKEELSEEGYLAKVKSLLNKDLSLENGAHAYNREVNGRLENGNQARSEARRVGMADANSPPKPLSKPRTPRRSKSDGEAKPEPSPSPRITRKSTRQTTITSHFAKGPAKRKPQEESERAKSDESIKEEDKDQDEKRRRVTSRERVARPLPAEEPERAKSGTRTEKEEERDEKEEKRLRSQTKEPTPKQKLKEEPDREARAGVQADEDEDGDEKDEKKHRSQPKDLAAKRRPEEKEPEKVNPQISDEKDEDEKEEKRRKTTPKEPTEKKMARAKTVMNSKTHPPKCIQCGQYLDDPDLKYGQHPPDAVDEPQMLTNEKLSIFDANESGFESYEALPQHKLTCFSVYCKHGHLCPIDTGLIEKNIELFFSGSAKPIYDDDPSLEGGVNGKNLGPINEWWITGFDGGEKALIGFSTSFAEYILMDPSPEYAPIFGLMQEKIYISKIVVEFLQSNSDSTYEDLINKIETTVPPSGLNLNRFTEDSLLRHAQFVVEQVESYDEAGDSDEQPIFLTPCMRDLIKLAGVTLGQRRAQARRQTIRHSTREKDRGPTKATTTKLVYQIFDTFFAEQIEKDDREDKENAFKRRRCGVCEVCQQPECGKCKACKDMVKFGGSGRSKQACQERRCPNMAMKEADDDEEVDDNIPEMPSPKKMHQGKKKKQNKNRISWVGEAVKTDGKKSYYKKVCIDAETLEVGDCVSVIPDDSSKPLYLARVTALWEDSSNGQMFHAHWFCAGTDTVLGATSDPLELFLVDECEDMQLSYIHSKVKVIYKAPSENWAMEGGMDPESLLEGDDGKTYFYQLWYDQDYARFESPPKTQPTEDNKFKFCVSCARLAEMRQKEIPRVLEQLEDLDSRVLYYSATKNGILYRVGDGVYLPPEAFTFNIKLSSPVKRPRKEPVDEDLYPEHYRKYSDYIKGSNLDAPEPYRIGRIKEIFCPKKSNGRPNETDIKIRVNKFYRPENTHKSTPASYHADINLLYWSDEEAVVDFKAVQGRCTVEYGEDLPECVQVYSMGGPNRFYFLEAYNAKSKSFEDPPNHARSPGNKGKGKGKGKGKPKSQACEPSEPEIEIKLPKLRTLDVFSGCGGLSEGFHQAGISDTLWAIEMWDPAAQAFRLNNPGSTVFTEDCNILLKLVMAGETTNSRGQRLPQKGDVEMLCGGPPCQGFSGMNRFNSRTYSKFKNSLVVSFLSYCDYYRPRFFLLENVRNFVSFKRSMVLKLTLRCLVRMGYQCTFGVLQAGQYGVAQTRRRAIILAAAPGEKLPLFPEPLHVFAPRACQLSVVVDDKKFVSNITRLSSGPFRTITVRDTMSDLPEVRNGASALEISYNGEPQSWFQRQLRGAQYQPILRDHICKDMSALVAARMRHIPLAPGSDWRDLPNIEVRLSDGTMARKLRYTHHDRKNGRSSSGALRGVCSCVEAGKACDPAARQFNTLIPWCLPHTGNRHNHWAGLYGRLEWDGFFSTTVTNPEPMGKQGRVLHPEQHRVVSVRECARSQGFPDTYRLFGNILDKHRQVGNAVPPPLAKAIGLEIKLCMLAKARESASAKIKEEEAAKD

Q: Which IC50 (Protein skinhead-1) does the source give for `CC1CCCCN1Cc1c(O)ccc2c(O)c(-c3nc4ccccc4s3)c(=N)oc12` (stereo unspecified) here?
A: Its IC50 is 4.74 µM (active).

Q: What about the CC50 [1] of the same molecule?
A: Its CC50 is 93.1 µM (active).

Q: For `O=c1cc(CN2CCCCCCC2)c2ccccc2o1`, which IC50 [2] is on record?
A: The IC50 was 41.5 µM (inactive).

Q: With `O=C1NC(=S)N(c2ccccc2)C(=O)/C1=C/c1ccco1` as the molecule, how does the EC50 [3] read?
A: The EC50 was 32.7 µM (active).

Q: And the IC50 [4]?
A: The IC50 was 8.35 µM (active).

Q: And the IC50 [5]?
A: Its IC50 is 0.811 µM (active).

Q: For `O=C(O)/C=C/C(=O)Nc1ccc(O)cc1`, which IC50 [6] is on record?
A: Its IC50 is 16.2 µM (active).

Q: And the IC50 [7]?
A: Its IC50 is 10.6 µM (active).

Q: With `Cc1ccc(-c2nc(C(=O)NCCCN(C)C)cc3c2[nH]c2ccccc23)cc1` as the molecule, how does the AC50 [8] read?
A: Its AC50 is 2.77 µM (active).

Q: What about the AC50 [9] of the same molecule?
A: Its AC50 is 11.2 µM (active).

Q: And the AC50 [10]?
A: Its AC50 is 10.9 µM (active).

Q: For `N=c1c(C(=O)NCc2ccco2)cc2c(=O)n3ccccc3nc2n1Cc1ccccc1`, which IC50 [2] is on record?
A: The IC50 was 28.4 µM (inactive).

Q: For `CCCCCNC(=O)C(c1ccc(OC)cc1)n1c(=O)c(-c2ccco2)nc2ccccc21` (stereo unspecified), which IC50 [11] is on record?
A: Its IC50 is 3.07 µM (active).

Q: For `Cc1cccc(C)c1OCc1cn(CC(=O)c2ccc(O)cc2)nn1`, which IC50 [11] is on record?
A: The IC50 was 4.78 µM (active).

Q: With `c1ccc(Nc2cc(Nc3ccccc3)[nH]n2)cc1` as the molecule, how does the CC50 [1] read?
A: The CC50 was 100 µM (active).

Q: And the IC50 [4]?
A: Its IC50 is 50.9 µM (active).

Q: For `C[C@H]1CN([C@@H](C)CO)C(=O)c2cc(NC(=O)Nc3ccc(C(F)(F)F)cc3)ccc2O[C@H]1CN(C)CC1CCCCC1`, which AC50 [12] is on record?
A: Its AC50 is 8.8 µM (active).

Q: And the AC50 [13]?
A: Its AC50 is 18.7 µM (active).

Q: What does the source list for `CN1CCN(c2nc(-c3cccnc3)nc3ccccc23)CC1`?
A: AC50 (Cytochrome P450 3A4): 25.1 µM (inconclusive); IC50 [14]: > 100 µM (active); AC50 [10]: 21.1 µM (active)
